Reference: ChEMBL document CHEMBL2424562, “A comparative study of antimicrobial properties of cyclo(l-Pro- l-Asp) with its 2-ketopiperazine analog” (2013)
In brackets after ≈: the same amount, converted by molar mass.

What was measured:
Format in all cases: functional
Staphylococcus aureus [1] = experiment: Antibacterial activity against Staphylococcus aureus MTCC 902 after 24 hrs by two-fold dilution method; conditions: MTCC 902, 24 h
Pseudomonas aeruginosa [2] = experiment: Antibacterial activity against Pseudomonas aeruginosa MTCC 2642 after 24 hrs by two-fold dilution method; conditions: MTCC 2642, 24 h
Klebsiella pneumoniae [3] = experiment: Antibacterial activity against Klebsiella pneumoniae MTCC 109 after 24 hrs by two-fold dilution method; conditions: MTCC 109, 24 h
Escherichia coli [4] = experiment: Antibacterial activity against Escherichia coli MTCC 2622 after 24 hrs by two-fold dilution method; conditions: MTCC 2622, 24 h
Bacillus subtilis [5] = experiment: Antibacterial activity against Bacillus subtilis MTCC 2756 after 24 hrs by two-fold dilution method; conditions: MTCC 2756, 24 h
Trichophyton rubrum [6] = experiment: Antifungal activity against Trichophyton rubrum MTCC 296 at MIC after 48 hrs by disc diffusion method
Penicillium expansum [7] = experiment: Antifungal activity against Penicillium expansum MTCC 2006 at MIC after 48 hrs by disc diffusion method
Candida tropicalis [8] = experiment: Antifungal activity against Candida tropicalis MTCC 184 at MIC after 48 hrs by disc diffusion method
Candida albicans [9] = experiment: Antifungal activity against Candida albicans MTCC 3017 at MIC after 48 hrs by disc diffusion method
Aspergillus tubingensis [10] = experiment: Antifungal activity against Aspergillus tubingensis MTCC 2425 at MIC after 48 hrs by disc diffusion method
Aspergillus niger [11] = experiment: Antifungal activity against Aspergillus niger MTCC 277 at MIC after 48 hrs by disc diffusion method
Aspergillus fumigatus [12] = experiment: Antifungal activity against Aspergillus fumigatus MTCC 3376 at MIC after 48 hrs by disc diffusion method
Aspergillus flavus [13] = experiment: Antifungal activity against Aspergillus flavus MTCC 183 at MIC after 48 hrs by disc diffusion method
Trichophyton rubrum [14] = experiment: Antifungal activity against Trichophyton rubrum MTCC 296 at 30 degC after 72 hrs by microbroth dilution technique; conditions: MTCC 296, 72 h
Penicillium expansum [15] = experiment: Antifungal activity against Penicillium expansum MTCC 2006 at 30 degC after 72 hrs by microbroth dilution technique; conditions: MTCC 2006, 72 h
Candida tropicalis [16] = experiment: Antifungal activity against Candida tropicalis MTCC 184 at 37 degC after 48 hrs by microbroth dilution technique; conditions: MTCC 184, 48 h
Candida albicans [17] = experiment: Antifungal activity against Candida albicans MTCC 3017 at 37 degC after 48 hrs by microbroth dilution technique; conditions: MTCC 3017, 48 h
Aspergillus tubingensis [18] = experiment: Antifungal activity against Aspergillus tubingensis MTCC 2425 at 30 degC after 72 hrs by microbroth dilution technique; conditions: MTCC 2425, 72 h
Aspergillus niger [19] = experiment: Antifungal activity against Aspergillus niger MTCC 277 at 30 degC after 72 hrs by microbroth dilution technique; conditions: MTCC 277, 72 h
Aspergillus fumigatus [20] = experiment: Antifungal activity against Aspergillus fumigatus MTCC 3376 at 30 degC after 72 hrs by microbroth dilution technique; conditions: MTCC 3376, 72 h
Aspergillus flavus [21] = experiment: Antifungal activity against Aspergillus flavus MTCC 183 at 30 degC after 72 hrs by microbroth dilution technique; conditions: MTCC 183, 72 h
[22] = tested on: Staphylococcus epidermidis; experiment: Antibacterial activity against Staphylococcus epidermidis MTCC 435 at MIC after overnight incubation by disc diffusion method
Staphylococcus aureus [23] = experiment: Antibacterial activity against Staphylococcus aureus MTCC 902 at MIC after overnight incubation by disc diffusion method
Pseudomonas aeruginosa [24] = experiment: Antibacterial activity against Pseudomonas aeruginosa MTCC 2642 at MIC after overnight incubation by disc diffusion method
Klebsiella pneumoniae [25] = experiment: Antibacterial activity against Klebsiella pneumoniae MTCC 109 at MIC after overnight incubation by disc diffusion method
Escherichia coli [26] = experiment: Antibacterial activity against Escherichia coli MTCC 2622 at MIC after overnight incubation by disc diffusion method
Bacillus subtilis [27] = experiment: Antibacterial activity against Bacillus subtilis MTCC 2756 at MIC after overnight incubation by disc diffusion method
[28] = tested on: Staphylococcus epidermidis; experiment: Antibacterial activity against Staphylococcus epidermidis MTCC 435 after 24 hrs by two-fold dilution method; conditions: MTCC 435, 24 h
Penicillium expansum [29] = experiment: Ratio of amphotericin B MIC to compound MIC for Penicillium expansum MTCC 2006

Compound	MIC (Staphylococcus aureus [1])	MIC (Pseudomonas aeruginosa [2])	MIC (Klebsiella pneumoniae [3])	MIC (Bacillus subtilis [5])	diameter of the inhibition zone (DIZ) (Trichophyton rubrum [6])	diameter of the inhibition zone (DIZ) (Penicillium expansum [7])	diameter of the inhibition zone (DIZ) (Candida tropicalis [8])	diameter of the inhibition zone (DIZ) (Candida albicans [9])	diameter of the inhibition zone (DIZ) (Aspergillus tubingensis [10])	diameter of the inhibition zone (DIZ) (Aspergillus niger [11])	diameter of the inhibition zone (DIZ) (Aspergillus fumigatus [12])	diameter of the inhibition zone (DIZ) (Aspergillus flavus [13])	MIC (Trichophyton rubrum [14])	MIC (Penicillium expansum [15])	MIC (Candida tropicalis [16])	MIC (Candida albicans [17])	MIC (Aspergillus tubingensis [18])	MIC (Aspergillus niger [19])	MIC (Aspergillus fumigatus [20])	MIC (Aspergillus flavus [21])	other results
O=C(O)C[C@@H]1NC[C@@H]2CCCN2C1=O	250 µg/mL (≈ 1260 µM)	125 µg/mL (≈ 631 µM)	32 µg/mL (≈ 161 µM)	125 µg/mL (≈ 631 µM)	28 mm	13 mm	14 mm	15 mm	21 mm	19 mm	18 mm	24 mm	8 µg/mL (≈ 40.4 µM)	500 µg/mL (≈ 2520 µM)	125 µg/mL (≈ 631 µM)	250 µg/mL (≈ 1260 µM)	125 µg/mL (≈ 631 µM)	64 µg/mL (≈ 323 µM)	250 µg/mL (≈ 1260 µM)	32 µg/mL (≈ 161 µM)	MIC (Escherichia coli [4]): 64 µg/mL (≈ 323 µM); diameter of the inhibition zone (DIZ) [22]: 23 mm; diameter of the inhibition zone (DIZ) (Staphylococcus aureus [23]): 16 mm; diameter of the inhibition zone (DIZ) (Pseudomonas aeruginosa [24]): 14 mm; diameter of the inhibition zone (DIZ) (Klebsiella pneumoniae [25]): 17 mm; diameter of the inhibition zone (DIZ) (Escherichia coli [26]): 19 mm; diameter of the inhibition zone (DIZ) (Bacillus subtilis [27]): 15 mm; MIC [28]: 64 µg/mL (≈ 323 µM)
O=C(O)C[C@@H]1NC(=O)[C@@H]2CCCN2C1=O	64 µg/mL (≈ 302 µM)	16 µg/mL (≈ 75.4 µM)	8 µg/mL (≈ 37.7 µM)	32 µg/mL (≈ 151 µM)	38 mm	29 mm	33 mm	26 mm	25 mm	22 mm	23 mm	28 mm	2 µg/mL (≈ 9.42 µM)	8 µg/mL (≈ 37.7 µM)	4 µg/mL (≈ 18.8 µM)	8 µg/mL (≈ 37.7 µM)	32 µg/mL (≈ 151 µM)	16 µg/mL (≈ 75.4 µM)	32 µg/mL (≈ 151 µM)	16 µg/mL (≈ 75.4 µM)	MIC (Escherichia coli [4]): 16 µg/mL (≈ 75.4 µM); Ratio (Penicillium expansum [29]): 8; diameter of the inhibition zone (DIZ) [22]: 24 mm; diameter of the inhibition zone (DIZ) (Staphylococcus aureus [23]): 21 mm; diameter of the inhibition zone (DIZ) (Pseudomonas aeruginosa [24]): 26 mm; diameter of the inhibition zone (DIZ) (Klebsiella pneumoniae [25]): 31 mm; diameter of the inhibition zone (DIZ) (Escherichia coli [26]): 26 mm; diameter of the inhibition zone (DIZ) (Bacillus subtilis [27]): 24 mm; MIC [28]: 64 µg/mL (≈ 302 µM)
C[C@@H]1[C@H](O)[C@@H](C)/C=C/C=C/C=C/C=C/C=C/C=C/C=C/[C@H](O[C@@H]2O[C@H](C)[C@@H](O)[C@H](N)[C@@H]2O)C[C@@H]2O[C@](O)(C[C@@H](O)C[C@@H](O)[C@H](O)CC[C@@H](O)C[C@@H](O)CC(=O)O[C@H]1C)C[C@H](O)[C@H]2C(=O)O [AMPHOTERICIN B]					29 mm	20 mm	24 mm	31 mm	30 mm	26 mm	25 mm	22 mm	4 µg/mL (≈ 4.33 µM)	64 µg/mL (≈ 69.3 µM)	8 µg/mL (≈ 8.66 µM)	16 µg/mL (≈ 17.3 µM)	64 µg/mL (≈ 69.3 µM)	32 µg/mL (≈ 34.6 µM)	16 µg/mL (≈ 17.3 µM)	16 µg/mL (≈ 17.3 µM)	
O=C(O)c1cn(C2CC2)c2cc(N3CCNCC3)c(F)cc2c1=O [CIPROFLOXACIN]	1 µg/mL (≈ 3.02 µM)	1 µg/mL (≈ 3.02 µM)	0.5 µg/mL (≈ 1.51 µM)	2 µg/mL (≈ 6.04 µM)																	diameter of the inhibition zone (DIZ) [22]: 31 mm; diameter of the inhibition zone (DIZ) (Staphylococcus aureus [23]): 31 mm; diameter of the inhibition zone (DIZ) (Pseudomonas aeruginosa [24]): 33 mm; diameter of the inhibition zone (DIZ) (Klebsiella pneumoniae [25]): 33 mm; diameter of the inhibition zone (DIZ) (Escherichia coli [26]): 32 mm; diameter of the inhibition zone (DIZ) (Bacillus subtilis [27]): 30 mm; MIC [28]: 0.25 µg/mL (≈ 0.754 µM)
